Patent US20230017045A1, “PYRIDINE AND PYRIMIDINE CARBOXYLATE HERBICIDES AND METHODS OF USE THEREOF” (Dow AgroSciences LLC, priority 2017, published 2023)

tested on: test plant species; assay: Post-emergent herbicidal activity test (greenhouse, foliar spray, visual growth reduction); assay type: in vivo; settings: post-emergence, 336 h, ALOMY: blackgrass (Alopecurus myosuroides), 140 g ai/ha, 14 days after application, read-out: Visual Growth Reduction (%) 14 Days After Application, ALOMY
Outline: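 Greenhouse plants at first–second true leaf stage sprayed overhead at 187 L/ha with compound in acetone/water/isopropanol/DMSO/crop oil/X-77 carrier; controls received solvent blank. Injury rated visually after 14 d on a 0–100% scale versus untreated and control plants, converted to growth reduction.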

SMILES	pest or weed control at 140 g/ha
COC(=O)c1nc(-c2ccc3occc3c2)c(F)cc1Cl [F188, Methyl 6-(benzofuran-5-yl)-3-chloro-5-fluoropicolinate]	0 to 29%
COC(=O)c1nc(-c2ccc(SC(F)(F)F)cc2)c(Cl)cc1Cl [F98, Methyl 3,5-dichloro-6-(4-((trifluoromethyl)thio)phenyl)picolinate]	0 to 29%

same assay, conditions: post-emergence, 336 h, AMARE: redroot pigweed (Amaranthus retroflexus), 140 g ai/ha, 14 days after application, read-out: Visual Growth Reduction (%) 14 Days After Application, AMARE

SMILES	pest or weed control at 140 g/ha
COC(=O)c1nc(-c2ccc3occc3c2)c(F)cc1Cl [F188, Methyl 6-(benzofuran-5-yl)-3-chloro-5-fluoropicolinate]	0 to 29%
COC(=O)c1nc(-c2ccc(SC(F)(F)F)cc2)c(Cl)cc1Cl [F98, Methyl 3,5-dichloro-6-(4-((trifluoromethyl)thio)phenyl)picolinate]	0 to 29%

same assay, conditions: post-emergence, 336 h, AVEFA: wild oat (Avena fatua), 140 g ai/ha, 14 days after application, read-out: Visual Growth Reduction (%) 14 Days After Application, AVEFA

SMILES	pest or weed control at 140 g/ha
COC(=O)c1nc(-c2ccc3occc3c2)c(F)cc1Cl [F188, Methyl 6-(benzofuran-5-yl)-3-chloro-5-fluoropicolinate]	0 to 29%
COC(=O)c1nc(-c2ccc(SC(F)(F)F)cc2)c(Cl)cc1Cl [F98, Methyl 3,5-dichloro-6-(4-((trifluoromethyl)thio)phenyl)picolinate]	0 to 29%

same assay, conditions: post-emergence, 336 h, CHEAL: lambsquarters (Chenopodium album), 140 g ai/ha, 14 days after application, read-out: Visual Growth Reduction (%) 14 Days After Application, CHEAL

SMILES	pest or weed control at 140 g/ha
COC(=O)c1nc(-c2ccc3occc3c2)c(F)cc1Cl [F188, Methyl 6-(benzofuran-5-yl)-3-chloro-5-fluoropicolinate]	60 to 74%
COC(=O)c1nc(-c2ccc(SC(F)(F)F)cc2)c(Cl)cc1Cl [F98, Methyl 3,5-dichloro-6-(4-((trifluoromethyl)thio)phenyl)picolinate]	0 to 29%

same assay, conditions: post-emergence, 336 h, CIRAR: canada thistle (Cirsium arvense), 140 g ai/ha, 14 days after application, read-out: Visual Growth Reduction (%) 14 Days After Application, CIRAR

SMILES	pest or weed control at 140 g/ha
COC(=O)c1nc(-c2ccc3occc3c2)c(F)cc1Cl [F188, Methyl 6-(benzofuran-5-yl)-3-chloro-5-fluoropicolinate]	45 to 59%
COC(=O)c1nc(-c2ccc(SC(F)(F)F)cc2)c(Cl)cc1Cl [F98, Methyl 3,5-dichloro-6-(4-((trifluoromethyl)thio)phenyl)picolinate]	0 to 29%

same assay, conditions: post-emergence, 336 h, CYPES: yellow nutsedge (Cyperus esculentus), 140 g ai/ha, 14 days after application, read-out: Visual Growth Reduction (%) 14 Days After Application, CYPES

SMILES	pest or weed control at 140 g/ha
COC(=O)c1nc(-c2ccc3occc3c2)c(F)cc1Cl [F188, Methyl 6-(benzofuran-5-yl)-3-chloro-5-fluoropicolinate]	0 to 29%
COC(=O)c1nc(-c2ccc(SC(F)(F)F)cc2)c(Cl)cc1Cl [F98, Methyl 3,5-dichloro-6-(4-((trifluoromethyl)thio)phenyl)picolinate]	0 to 29%

same assay, conditions: post-emergence, 336 h, DIGSA: crabgrass (Digitaria sanguinalis), 140 g ai/ha, 14 days after application, read-out: Visual Growth Reduction (%) 14 Days After Application, DIGSA

SMILES	pest or weed control at 140 g/ha
COC(=O)c1nc(-c2ccc3occc3c2)c(F)cc1Cl [F188, Methyl 6-(benzofuran-5-yl)-3-chloro-5-fluoropicolinate]	30 to 44%
COC(=O)c1nc(-c2ccc(SC(F)(F)F)cc2)c(Cl)cc1Cl [F98, Methyl 3,5-dichloro-6-(4-((trifluoromethyl)thio)phenyl)picolinate]	0 to 29%

same assay, conditions: post-emergence, 336 h, ECHCG: barnyardgrass (Echinochloa crus-galli), 140 g ai/ha, 14 days after application, read-out: Visual Growth Reduction (%) 14 Days After Application, ECHCG

SMILES	pest or weed control at 140 g/ha
COC(=O)c1nc(-c2ccc3occc3c2)c(F)cc1Cl [F188, Methyl 6-(benzofuran-5-yl)-3-chloro-5-fluoropicolinate]	0 to 29%
COC(=O)c1nc(-c2ccc(SC(F)(F)F)cc2)c(Cl)cc1Cl [F98, Methyl 3,5-dichloro-6-(4-((trifluoromethyl)thio)phenyl)picolinate]	0 to 29%

same assay, conditions: post-emergence, 336 h, IPOHE: ivy-leaf morning glory (Ipomoea hederacea), 140 g ai/ha, 14 days after application, read-out: Visual Growth Reduction (%) 14 Days After Application, IPOHE

SMILES	pest or weed control at 140 g/ha
COC(=O)c1nc(-c2ccc3occc3c2)c(F)cc1Cl [F188, Methyl 6-(benzofuran-5-yl)-3-chloro-5-fluoropicolinate]	30 to 44%
COC(=O)c1nc(-c2ccc(SC(F)(F)F)cc2)c(Cl)cc1Cl [F98, Methyl 3,5-dichloro-6-(4-((trifluoromethyl)thio)phenyl)picolinate]	0 to 29%

same assay, conditions: post-emergence, 336 h, KCHSC: kochia (Bassia scoparia), 140 g ai/ha, 14 days after application, read-out: Visual Growth Reduction (%) 14 Days After Application, KCHSC

SMILES	pest or weed control at 140 g/ha
COC(=O)c1nc(-c2ccc3occc3c2)c(F)cc1Cl [F188, Methyl 6-(benzofuran-5-yl)-3-chloro-5-fluoropicolinate]	0 to 29%
COC(=O)c1nc(-c2ccc(SC(F)(F)F)cc2)c(Cl)cc1Cl [F98, Methyl 3,5-dichloro-6-(4-((trifluoromethyl)thio)phenyl)picolinate]	0 to 29%

same assay, conditions: post-emergence, 336 h, ORYSA: rice (Oryza sativa), 140 g ai/ha, 14 days after application, read-out: Visual Growth Reduction (%) 14 Days After Application, ORYSA

SMILES	pest or weed control at 140 g/ha
COC(=O)c1nc(-c2ccc3occc3c2)c(F)cc1Cl [F188, Methyl 6-(benzofuran-5-yl)-3-chloro-5-fluoropicolinate]	0 to 29%
COC(=O)c1nc(-c2ccc(SC(F)(F)F)cc2)c(Cl)cc1Cl [F98, Methyl 3,5-dichloro-6-(4-((trifluoromethyl)thio)phenyl)picolinate]	0 to 29%

same assay, conditions: post-emergence, 336 h, SETFA: giant foxtail (Setaria faberi), 140 g ai/ha, 14 days after application, read-out: Visual Growth Reduction (%) 14 Days After Application, SETFA

SMILES	pest or weed control at 140 g/ha
COC(=O)c1nc(-c2ccc3occc3c2)c(F)cc1Cl [F188, Methyl 6-(benzofuran-5-yl)-3-chloro-5-fluoropicolinate]	0 to 29%
COC(=O)c1nc(-c2ccc(SC(F)(F)F)cc2)c(Cl)cc1Cl [F98, Methyl 3,5-dichloro-6-(4-((trifluoromethyl)thio)phenyl)picolinate]	0 to 29%

same assay, conditions: post-emergence, 336 h, SORVU: grain sorghum (Sorghum vulgare), 140 g ai/ha, 14 days after application, read-out: Visual Growth Reduction (%) 14 Days After Application, SORVU

SMILES	pest or weed control at 140 g/ha
COC(=O)c1nc(-c2ccc3occc3c2)c(F)cc1Cl [F188, Methyl 6-(benzofuran-5-yl)-3-chloro-5-fluoropicolinate]	0 to 29%
COC(=O)c1nc(-c2ccc(SC(F)(F)F)cc2)c(Cl)cc1Cl [F98, Methyl 3,5-dichloro-6-(4-((trifluoromethyl)thio)phenyl)picolinate]	0 to 29%

same assay, conditions: post-emergence, 336 h, STEME: common chickweed (Stellaria media), 140 g ai/ha, 14 days after application, read-out: Visual Growth Reduction (%) 14 Days After Application, STEME

SMILES	pest or weed control at 140 g/ha
COC(=O)c1nc(-c2ccc3occc3c2)c(F)cc1Cl [F188, Methyl 6-(benzofuran-5-yl)-3-chloro-5-fluoropicolinate]	0 to 29%
COC(=O)c1nc(-c2ccc(SC(F)(F)F)cc2)c(Cl)cc1Cl [F98, Methyl 3,5-dichloro-6-(4-((trifluoromethyl)thio)phenyl)picolinate]	0 to 29%

same assay, conditions: post-emergence, 336 h, TRZAS: wheat, spring (Triticum aestivum), 140 g ai/ha, 14 days after application, read-out: Visual Growth Reduction (%) 14 Days After Application, TRZAS

SMILES	pest or weed control at 140 g/ha
COC(=O)c1nc(-c2ccc3occc3c2)c(F)cc1Cl [F188, Methyl 6-(benzofuran-5-yl)-3-chloro-5-fluoropicolinate]	0 to 29%
COC(=O)c1nc(-c2ccc(SC(F)(F)F)cc2)c(Cl)cc1Cl [F98, Methyl 3,5-dichloro-6-(4-((trifluoromethyl)thio)phenyl)picolinate]	0 to 29%
